The results in this text go back to patent US20250034151A1, “WEE1 INHIBITOR, PREPARATION THEREFOR, AND USE THEREOF” (JIANGSU TASLY DIYI PHARMACEUTICAL CO., LTD., priority 2022, published 2025).

Molecules are shown by their SMILES.

Series [1] in a line: Liver microsomes in vitro stability (human). The series is classed as in vitro ADME. The note with it: read-out: T1/2/min (H). As for the experimental part: 1. Preparation of Working Solution:
Microsomes were taken out from the −80° C. refrigerator, rapidly melted in a 37° C. water bath and placed on ice until ready to use. The test article was diluted with DMSO to prepare a 10 mM stock solution, and then diluted with acetonitrile to a 0.5 mM secondary stock solution. […] NADPH was diluted with Buffer C to a working solution of 6 mM for the starter solution. An acetonitrile solution containing an internal standard was prepared as the precipitant, and Verapamil-HCl was chosen as the internal standard at a concentration of 4 ng/ml.
2. Experimental Procedure:
A round-bottom well plate was taken, noted as the reaction plate, and the prepared working solution for each compound was dispensed into the well plate according to the number of replicates and time points (0 h samples were also added to the reaction plate), 30 μL/well; the plate was incubated at 37° C. for 10 min. A separate plate with pointed bottom wells, noted as a precipitation plate, was added with 135 μL precipitant per well; 0 h samples were transferred to the plate after 10 min incubation and 15 μL of starter solution was added; the plate was placed on ice before centrifugation.
The diluted starter solution was added in sufficient quantity to the dispensing plate to facilitate the multichannel pipette aspiration operation.
The reaction was carried out on a warm incubation shaker and 15 μL of starter solution/sample is added to the plate using a multichannel pipette. The reaction was mixed with a slight shake to initiate the reaction, which was accurately timed and recorded using a timer. In general, samples with shorter reaction times are initiated late and vice versa early, allowing sufficient time for multiple plate manipulation to terminate the reaction. For example, as for the four experiments of 5, 15, 30, and 60 min, the 60 min experiment was started first, and the 5 min experiment was started later, so as to leave sufficient time for the 5 min group.
After the reaction time had elapsed, all the solution in the plate was aspirated using the multichannel pipette and added to the precipitation plate to terminate the reaction at that point in time. After all reactions had been terminated, the plates were shaken for ten minutes on a plate shaker at 600 rpm to precipitate the protein. The plate was centrifuged at 4° C. for 15 minutes at maximum rpm. 80 μL of supernatant was taken, 320 μL of pure water was added and mixed for LC-MS analysis.

For a further series, the target named is T1, Wee1 protein (Homo sapiens, UniProt P30291).
T1 construct: purchased Thermo Fisher PR7373A
T1 sequence (P30291 whole entry): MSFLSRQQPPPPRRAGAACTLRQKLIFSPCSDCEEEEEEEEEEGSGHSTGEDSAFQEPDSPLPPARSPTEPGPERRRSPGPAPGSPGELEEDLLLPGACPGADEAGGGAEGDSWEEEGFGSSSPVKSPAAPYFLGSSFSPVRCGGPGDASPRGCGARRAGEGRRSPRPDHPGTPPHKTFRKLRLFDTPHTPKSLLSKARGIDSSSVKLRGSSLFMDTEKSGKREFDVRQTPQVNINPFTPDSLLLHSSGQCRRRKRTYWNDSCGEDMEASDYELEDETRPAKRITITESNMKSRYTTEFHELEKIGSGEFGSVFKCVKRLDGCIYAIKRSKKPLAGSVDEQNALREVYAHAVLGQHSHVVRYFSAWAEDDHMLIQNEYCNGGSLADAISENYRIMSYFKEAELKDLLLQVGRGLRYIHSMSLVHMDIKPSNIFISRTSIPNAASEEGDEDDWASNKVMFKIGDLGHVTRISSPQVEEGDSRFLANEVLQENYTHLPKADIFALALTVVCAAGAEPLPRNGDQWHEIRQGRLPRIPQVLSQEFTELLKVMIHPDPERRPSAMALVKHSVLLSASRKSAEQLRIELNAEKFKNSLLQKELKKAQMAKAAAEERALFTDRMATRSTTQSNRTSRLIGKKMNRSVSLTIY
The experiment in a line: Binding of compound to Wee1 protein and Tracer 178 by TR-FRET (Wee1 kinase inhibitory activity). The note with it: 15 nM WEE1, 50 nM Tracer 178, read-out: IC50 (inhibitory activity against Wee1 kinase).

A short description of series [2]: Liver microsomes in vitro stability (mouse). The series is classed as in vitro ADME. The note with it: read-out: T1/2/min.
Another series has as its target CYP2C9 (Homo sapiens, UniProt P11712). Put plainly: in vitro. The note with it: CYP2C9 enzyme, pH 7.4, probe BOMCC (0.01 mM).
The target in a further series is CYP3A4 (Homo sapiens, UniProt P08684). Put plainly: in vitro. The note with it: CYP3A4 enzyme, pH 7.4, probe BOMCC (0.01 mM).
CYP3A4, sequence (P08684 whole entry, species assumed): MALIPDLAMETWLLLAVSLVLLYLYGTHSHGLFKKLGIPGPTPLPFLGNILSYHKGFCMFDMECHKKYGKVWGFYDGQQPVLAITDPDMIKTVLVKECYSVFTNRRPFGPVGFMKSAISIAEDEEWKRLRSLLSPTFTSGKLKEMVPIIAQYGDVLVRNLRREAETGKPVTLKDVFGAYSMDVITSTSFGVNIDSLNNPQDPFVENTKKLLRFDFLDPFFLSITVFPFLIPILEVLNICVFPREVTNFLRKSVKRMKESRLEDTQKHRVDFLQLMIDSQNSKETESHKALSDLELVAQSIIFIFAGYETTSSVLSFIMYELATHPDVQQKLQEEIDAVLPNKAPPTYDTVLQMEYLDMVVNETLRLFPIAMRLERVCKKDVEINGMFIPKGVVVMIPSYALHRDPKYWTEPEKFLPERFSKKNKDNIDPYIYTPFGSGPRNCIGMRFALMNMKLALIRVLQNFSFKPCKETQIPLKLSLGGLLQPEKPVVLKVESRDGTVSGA
The target of another series is CYP2C19 (Homo sapiens, UniProt P33261). Put plainly: in vitro. The note with it: CYP2C19 enzyme, pH 7.4, probe EOMCC (0.01 mM).
CYP2C19, sequence (P33261 whole entry, species assumed): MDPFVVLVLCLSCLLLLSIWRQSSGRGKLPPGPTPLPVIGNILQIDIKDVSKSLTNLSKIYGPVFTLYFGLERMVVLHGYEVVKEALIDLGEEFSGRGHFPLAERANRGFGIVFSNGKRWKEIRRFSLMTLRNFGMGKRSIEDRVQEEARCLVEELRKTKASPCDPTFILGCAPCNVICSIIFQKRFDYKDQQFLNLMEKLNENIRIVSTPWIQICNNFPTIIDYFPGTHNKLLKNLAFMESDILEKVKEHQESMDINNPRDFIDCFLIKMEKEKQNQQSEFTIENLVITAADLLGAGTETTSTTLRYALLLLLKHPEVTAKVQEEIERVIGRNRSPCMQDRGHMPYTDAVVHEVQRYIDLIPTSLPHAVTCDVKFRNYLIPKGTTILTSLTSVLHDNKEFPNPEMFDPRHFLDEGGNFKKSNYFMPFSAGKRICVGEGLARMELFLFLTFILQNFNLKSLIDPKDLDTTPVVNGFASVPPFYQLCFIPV
In the next series the target is T2, CYP2C8 (Homo sapiens, UniProt P10632).
T2 sequence (P10632 1-490): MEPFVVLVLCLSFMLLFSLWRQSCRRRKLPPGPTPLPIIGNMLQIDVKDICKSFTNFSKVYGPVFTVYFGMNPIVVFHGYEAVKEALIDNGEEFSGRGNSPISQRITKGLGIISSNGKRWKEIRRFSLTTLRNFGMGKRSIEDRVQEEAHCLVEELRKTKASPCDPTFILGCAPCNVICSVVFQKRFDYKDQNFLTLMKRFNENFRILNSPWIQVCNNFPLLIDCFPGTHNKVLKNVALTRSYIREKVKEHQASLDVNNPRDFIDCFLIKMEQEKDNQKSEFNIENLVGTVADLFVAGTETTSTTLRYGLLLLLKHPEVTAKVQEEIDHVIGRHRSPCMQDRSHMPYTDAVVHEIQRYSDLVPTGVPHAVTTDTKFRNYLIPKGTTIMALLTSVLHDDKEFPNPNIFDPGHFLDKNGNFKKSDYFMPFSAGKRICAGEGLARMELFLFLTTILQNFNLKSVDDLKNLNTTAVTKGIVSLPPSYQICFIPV
Put plainly: in vitro. As to conditions: CYP2C8 enzyme, pH 7.4, probe DBOMF (0.001 mM).

For the next series, the target named is T3, CYP1A2 (Homo sapiens, UniProt P05177).
T3 sequence (P05177 1-516): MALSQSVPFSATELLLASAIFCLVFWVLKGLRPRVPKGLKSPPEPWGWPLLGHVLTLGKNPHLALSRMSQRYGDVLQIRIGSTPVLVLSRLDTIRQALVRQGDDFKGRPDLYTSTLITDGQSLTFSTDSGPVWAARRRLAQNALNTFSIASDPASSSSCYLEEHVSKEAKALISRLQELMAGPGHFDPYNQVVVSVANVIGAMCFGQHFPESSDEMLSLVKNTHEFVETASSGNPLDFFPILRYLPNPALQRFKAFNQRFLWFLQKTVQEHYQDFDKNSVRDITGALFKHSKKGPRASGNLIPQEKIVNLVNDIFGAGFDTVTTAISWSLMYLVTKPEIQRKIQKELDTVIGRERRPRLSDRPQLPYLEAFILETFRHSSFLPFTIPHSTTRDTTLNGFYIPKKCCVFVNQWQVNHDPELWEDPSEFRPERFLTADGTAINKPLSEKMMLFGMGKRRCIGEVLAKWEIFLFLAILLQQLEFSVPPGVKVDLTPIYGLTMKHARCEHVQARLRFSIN
Put plainly: in vitro. As to conditions: CYP1A2 enzyme, pH 7.4, probe EOMCC (0.01 mM).

Another series has as its target CYP2D6 (Homo sapiens, UniProt P10635). Put plainly: in vitro. The note with it: CYP2D6 enzyme, pH 7.4, probe EOMCC (0.01 mM).

CYP2C9, sequence (P11712 whole entry, species assumed): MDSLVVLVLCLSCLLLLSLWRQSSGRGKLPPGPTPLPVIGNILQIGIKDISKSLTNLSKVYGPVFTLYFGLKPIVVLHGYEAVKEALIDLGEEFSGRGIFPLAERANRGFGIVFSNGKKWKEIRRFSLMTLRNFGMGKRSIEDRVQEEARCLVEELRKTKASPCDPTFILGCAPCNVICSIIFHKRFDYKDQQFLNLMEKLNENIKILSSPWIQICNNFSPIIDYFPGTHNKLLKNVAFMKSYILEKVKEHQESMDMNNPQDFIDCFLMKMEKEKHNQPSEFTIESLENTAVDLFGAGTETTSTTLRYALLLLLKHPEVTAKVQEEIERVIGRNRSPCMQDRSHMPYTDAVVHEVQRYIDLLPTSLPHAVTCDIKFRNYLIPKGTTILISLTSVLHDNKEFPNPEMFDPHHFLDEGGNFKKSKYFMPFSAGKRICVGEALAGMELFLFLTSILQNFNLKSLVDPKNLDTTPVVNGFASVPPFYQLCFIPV
CYP2D6, sequence (P10635 whole entry, species assumed): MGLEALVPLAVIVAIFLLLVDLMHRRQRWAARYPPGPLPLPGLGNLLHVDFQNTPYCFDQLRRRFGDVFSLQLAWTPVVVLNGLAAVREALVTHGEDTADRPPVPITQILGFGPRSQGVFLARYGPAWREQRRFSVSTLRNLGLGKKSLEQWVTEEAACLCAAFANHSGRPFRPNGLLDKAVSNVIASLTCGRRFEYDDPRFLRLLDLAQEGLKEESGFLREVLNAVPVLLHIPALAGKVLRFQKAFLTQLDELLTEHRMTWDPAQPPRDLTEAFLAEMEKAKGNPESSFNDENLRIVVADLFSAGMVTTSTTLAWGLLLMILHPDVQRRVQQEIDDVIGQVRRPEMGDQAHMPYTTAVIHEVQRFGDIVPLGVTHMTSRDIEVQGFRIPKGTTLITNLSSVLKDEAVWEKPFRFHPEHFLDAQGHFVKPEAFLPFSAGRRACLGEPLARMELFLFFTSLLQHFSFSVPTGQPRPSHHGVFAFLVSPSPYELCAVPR

For `C=CCn1c(=O)c2cnc(Nc3ccc(N4CC5CC(C4)N5C)cc3)nc2n1-c1cccc(C(C)(C)O)n1` [Compound 27], the values for the half-life at 1 µM in series [1] and in [2] were 1.75 h and 0.55 h, respectively. Besides, the IC50 at Wee1 protein fell in the range of 5 to 10 nM.
Consider `C=CCn1c(=O)c2cnc(Nc3ccc(N4CCN(C)CC4)cc3)nc2n1-c1cccc(C(C)(C)O)n1` [AZD1775], for which the inhibition at 30 min, 1 µM against CYP2C9 was 15.4%; at CYP3A4, -14%; on CYP2C19 it was 25.4%; on CYP2C8, 7.1%; against CYP1A2, 20.2%; on CYP2D6 it was 3.4%. Also, the inhibition at 30 min, 10 µM against CYP2C9 is 6.4%; at CYP3A4, -32.9%; at CYP2C19 it was 71.9%; at CYP2C8, 17.3%; at CYP1A2, 17.5%; on CYP2D6, 1.5%.
